In patent US5328899A, “NPY peptide analogs” (The Salk Institute for Biological Studies, priority 1992, dated 1994):

Key:
[1] = tested on: conscious rats; experiment: Effect on mean arterial blood pressure (MAP) and heart rate after intra-arterial injection in conscious rats; format: in vivo, rat
Procedure: (§1) Saline solutions of the peptides are injected intra-arterially into conscious rats, and arterial pressure is monitored via an indwelling femoral cannula directly coupled to a pressure transducer. […] Control animals receive saline vehicle alone.
Saline solutions of the peptides were administered intraarterially in a 100-μL bolus in an amount equal to about 0.4 mg/Kg body weight.

[2] = tested on: hypertensive actions of NPY; experiment: NPY-induced increase in MAP in animals pretreated with NPY(18-36); format: in vivo, rat; settings: NPY 1 μg intra-arterially, 3 animals
Procedure: as §1

[3] = tested on: intracellular Ca++; experiment: Elevation of intracellular Ca++ concentrations; format: cell-based; settings: 100 nM NPY after 100 nM NPY (18-36)

## CC[C@H](C)[C@H](NC(=O)[C@H](Cc1ccc(O)cc1)NC(=O)[C@H](Cc1c[nH]cn1)NC(=O)[C@H](CCCNC(=N)N)NC(=O)[C@H](CC(C)C)NC(=O)[C@H](C)NC(=O)[C@H](CO)NC(=O)[C@H](Cc1ccc(O)cc1)NC(=O)[C@H](Cc1ccc(O)cc1)NC(=O)[C@H](CCCNC(=N)N)NC(=O)[C@H](C)NC(=O)[C@@H](N)CC(C)C)C(=O)N[C@@H](CC(N)=O)C(=O)N[C@@H](CC(C)C)C(=O)N[C@H](C(=O)N[C@H](C(=O)N[C@@H](CCCNC(=N)N)C(=O)N[C@@H](CCC(N)=O)C(=O)N[C@@H](CCCNC(=N)N)C(=O)N[C@@H](Cc1ccc(O)cc1)C(N)=O)[C@@H](C)O)[C@@H](C)CC [pNPY(17-36)]
[1]
  decrease in MAP at five and ten minutes after administration: significantly decrease MAP

## Neuropeptide Y [NPY]
[2]; animals pretreated with NPY(18-36) 300 μg
  increase in MAP obtained by NPY administration: 28±5 mmHg
[2]; control animals
  increase in MAP obtained by NPY administration: 32±5 mmHg
[3]
  elevation of intracellular Ca++ by NPY after addition of NPY(18-36): to the same extent as under control conditions
